Where two headings read alike, the source gives them in different places.
Tests used:
Format in all cases: cell-based
GLP-1R [1] = target: T1, GLP-1R (Homo sapiens, UniProt P43220); assay: PathHunter β-arrestin assay
In short: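 Cells (5,000/well) plated overnight, then exposed to a 22-point 2-fold agonist dilution series in medium with 0.2% BSA for 90 min at 37 °C, 5% CO2. PathHunter detection reagent added; after 3 h at room temperature in the dark, luminescence read.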

GIP-R = target: T2, GIP-R (Homo sapiens, UniProt P48546); assay: HitHunter cAMP assay (GIP-R); details: cAMP; for Emax: read-out: (Emax) GIP-R
T2 sequence (P48546 22-466): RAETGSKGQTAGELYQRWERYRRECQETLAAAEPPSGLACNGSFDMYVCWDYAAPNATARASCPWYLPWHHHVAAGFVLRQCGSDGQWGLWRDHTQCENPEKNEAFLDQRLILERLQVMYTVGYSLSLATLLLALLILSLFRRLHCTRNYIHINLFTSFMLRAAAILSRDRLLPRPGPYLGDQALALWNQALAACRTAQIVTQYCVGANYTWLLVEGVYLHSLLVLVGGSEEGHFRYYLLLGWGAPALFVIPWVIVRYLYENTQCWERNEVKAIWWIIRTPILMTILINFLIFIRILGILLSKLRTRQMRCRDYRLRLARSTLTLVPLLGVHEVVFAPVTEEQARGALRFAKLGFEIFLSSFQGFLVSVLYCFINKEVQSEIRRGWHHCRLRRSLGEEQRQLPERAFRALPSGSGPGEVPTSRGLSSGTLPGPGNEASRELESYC
In short: (§1)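 Suspension cells (10,000/well) in HBSS with 10 mM HEPES, 625 μM IBMX, 0.2% BSA exposed to 22-point 2-fold agonist series in duplicate for 30 min at room temperature. cAMP measured by antibody immunocompetition with overnight development, luminescence read-out.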

GLP-1R [2] = target: T1, GLP-1R; assay: HitHunter cAMP assay (GLP-1R); details: cAMP; for Emax: read-out: (Emax) GLP-1R
In short: as §1

T1 sequence (P43220 24-463): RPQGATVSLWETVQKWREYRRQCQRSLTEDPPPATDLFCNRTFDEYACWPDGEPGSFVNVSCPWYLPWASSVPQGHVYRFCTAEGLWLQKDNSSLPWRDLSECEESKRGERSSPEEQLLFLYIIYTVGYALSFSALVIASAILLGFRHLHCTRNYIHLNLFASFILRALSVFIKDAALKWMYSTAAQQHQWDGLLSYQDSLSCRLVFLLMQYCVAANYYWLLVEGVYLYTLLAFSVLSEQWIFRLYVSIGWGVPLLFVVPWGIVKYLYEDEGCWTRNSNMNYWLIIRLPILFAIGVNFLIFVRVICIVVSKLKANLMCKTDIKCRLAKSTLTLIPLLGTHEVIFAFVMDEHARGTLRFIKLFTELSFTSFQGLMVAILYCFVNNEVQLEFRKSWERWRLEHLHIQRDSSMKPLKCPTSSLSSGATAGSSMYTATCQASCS

SMILES	EC50 (GLP-1R [1]; PathHunter β-arrestin assay, read-out: β-arrestin activity EC50)	Emax (GIP-R; Table 3A)	EC50 (GIP-R; Table 3A, read-out: EC50 GIP-R/nM)	Emax (GLP-1R [2]; Table 3A)	EC50 (GLP-1R [2]; Table 3A, read-out: EC50 GLP-1R/nM)	EC50 (GLP-1R [1])	EC50 (GIP-R; EC50 GIP-R/nM, Table 3)	EC50 (GIP-R; EC50 GIP-R/nM, Table 3A)	Emax (GIP-R; Table 3)	EC50 (GLP-1R [2]; EC50 GLP-1R/nM, Table 3)	EC50 (GLP-1R [2]; EC50 GLP-1R/nM, Table 3A)	Emax (GLP-1R [2]; Table 3)	Emax at 1 µM (GIP-R; read-out: (Emax) GIP-R at 1 μM, Table 3, at 1 μM)	EC50 (GIP-R; read-out: EC50 GIP-R/nM, Table 3A)
CCCCCCCCCCCCCCCC(=O)N[C@@H](CCC(=O)NCCCC[C@H](NC(=O)[C@H](CO)NC(=O)[C@@H]1CCCN1C(=O)[C@@H]1CCCN1C(=O)[C@@H]1CCCN1C(=O)[C@H](C)NC(=O)CNC(=O)[C@H](CO)NC(=O)[C@H](CO)NC(=O)[C@@H]1CCCN1C(=O)CNC(=O)CNC(=O)[C@H](C)NC(=O)[C@H](CC(C)C)NC(=O)[C@H](CC(C)C)NC(=O)[C@H](Cc1c[nH]c2ccccc12)NC(=O)[C@H](CC(N)=O)NC(=O)[C@@H](NC(=O)[C@H](Cc1ccccc1)NC(=O)[C@H](CCC(=O)O)NC(=O)C(C)(C)NC(=O)[C@H](C)NC(=O)[C@H](C)NC(=O)[C@H](CCC(N)=O)NC(=O)[C@H](CCCCN)NC(=O)[C@H](CC(=O)O)NC(=O)[C@H](CC(C)C)NC(=O)[C@H](Cc1ccc(O)cc1)NC(=O)[C@@H](NC(=O)[C@H](CO)NC(=O)[C@H](Cc1ccc(O)cc1)NC(=O)[C@H](CC(=O)O)NC(=O)[C@H](CO)NC(=O)[C@@H](NC(=O)[C@H](Cc1ccccc1)NC(=O)[C@@H](NC(=O)CNC(=O)[C@H](CCC(=O)O)NC(=O)CCCC(=O)NCCN1CCOCC1=O)[C@@H](C)O)[C@@H](C)O)[C@@H](C)CC)C(C)C)C(N)=O)C(=O)O [Compound 243]	> 1000 nM	20%	10 to 100 nM	103%	< 0.1 nM									
CCCCCCCCCCCCCCCC(=O)N[C@@H](CCC(=O)NCCCC[C@H](NC(=O)[C@H](CO)NC(=O)[C@@H]1CCCN1C(=O)[C@@H]1CCCN1C(=O)[C@@H]1CCCN1C(=O)[C@H](C)NC(=O)CNC(=O)[C@H](CO)NC(=O)[C@H](CO)NC(=O)[C@@H]1CCCN1C(=O)CNC(=O)CNC(=O)[C@H](C)NC(=O)[C@H](CC(C)C)NC(=O)[C@H](CC(C)C)NC(=O)[C@H](Cc1c[nH]c2ccccc12)NC(=O)[C@H](CC(N)=O)NC(=O)[C@@H](NC(=O)[C@H](Cc1ccccc1)NC(=O)[C@H](CCC(=O)O)NC(=O)C(C)(C)NC(=O)[C@H](C)NC(=O)[C@H](C)NC(=O)[C@H](CCC(N)=O)NC(=O)[C@H](CCCCN)NC(=O)[C@H](CC(=O)O)NC(=O)[C@H](CC(C)C)NC(=O)[C@H](Cc1ccc(O)cc1)NC(=O)[C@@H](NC(=O)[C@H](CO)NC(=O)[C@H](Cc1ccc(O)cc1)NC(=O)[C@H](CC(=O)O)NC(=O)[C@H](CO)NC(=O)[C@@H](NC(=O)[C@H](Cc1ccccc1)NC(=O)[C@@H](NC(=O)CNC(=O)[C@H](CCC(=O)O)NC(=O)CSCC(=O)NCCN1CCc2ccccc2C1=O)[C@@H](C)O)[C@@H](C)O)[C@@H](C)CC)C(C)C)C(N)=O)C(=O)O [Compound 13]		25%		69%		> 1000 nM	1 to 10 nM	10 to 100 nM	25%	1 to 10 nM	1 to 10 nM	69%		
CCCCCCCCCCCCCCCC(=O)N[C@@H](CCC(=O)NCCCC[C@H](NC(=O)[C@H](CO)NC(=O)[C@@H]1CCCN1C(=O)[C@@H]1CCCN1C(=O)[C@@H]1CCCN1C(=O)[C@H](C)NC(=O)CNC(=O)[C@H](CO)NC(=O)[C@H](CO)NC(=O)[C@@H]1CCCN1C(=O)CNC(=O)CNC(=O)[C@H](C)NC(=O)[C@H](CC(C)C)NC(=O)[C@H](CC(C)C)NC(=O)[C@H](Cc1c[nH]c2ccccc12)NC(=O)[C@H](CC(N)=O)NC(=O)[C@@H](NC(=O)[C@H](Cc1ccccc1)NC(=O)[C@H](CCC(=O)O)NC(=O)C(C)(C)NC(=O)[C@H](C)NC(=O)[C@H](C)NC(=O)[C@H](CCC(N)=O)NC(=O)[C@H](CCCCN)NC(=O)[C@H](CC(=O)O)NC(=O)[C@H](CC(C)C)NC(=O)[C@H](Cc1ccc(O)cc1)NC(=O)[C@@H](NC(=O)[C@H](CO)NC(=O)[C@H](Cc1ccc(O)cc1)NC(=O)[C@H](CC(=O)O)NC(=O)[C@H](CO)NC(=O)[C@@H](NC(=O)[C@H](Cc1ccccc1)NC(=O)[C@@H](NC(=O)CNC(=O)[C@H](CCC(=O)O)NC(=O)CSCC(=O)NCCN1CCN(C)C(=O)C1=O)[C@@H](C)O)[C@@H](C)O)[C@@H](C)CC)C(C)C)C(N)=O)C(=O)O [Compound 30]		59%		97%		> 1000 nM	1 to 10 nM	1 to 10 nM	59%	0.1 to 1 nM	0.1 to 1 nM	97%		
CCCCCCCCCCCCCCCC(=O)N[C@@H](CCC(=O)NCCCC[C@H](NC(=O)[C@H](CO)NC(=O)[C@@H]1CCCN1C(=O)[C@@H]1CCCN1C(=O)[C@@H]1CCCN1C(=O)[C@H](C)NC(=O)CNC(=O)[C@H](CO)NC(=O)[C@H](CO)NC(=O)[C@@H]1CCCN1C(=O)CNC(=O)CNC(=O)[C@H](C)NC(=O)[C@H](CC(C)C)NC(=O)[C@H](CC(C)C)NC(=O)[C@H](Cc1c[nH]c2ccccc12)NC(=O)[C@H](CC(N)=O)NC(=O)[C@@H](NC(=O)[C@H](Cc1ccccc1)NC(=O)[C@H](CCC(=O)O)NC(=O)C(C)(C)NC(=O)[C@H](C)NC(=O)[C@H](C)NC(=O)[C@H](CCC(N)=O)NC(=O)[C@H](CCCCN)NC(=O)[C@H](CC(=O)O)NC(=O)[C@H](CC(C)C)NC(=O)[C@H](Cc1ccc(O)cc1)NC(=O)[C@@H](NC(=O)[C@H](CO)NC(=O)[C@H](Cc1ccc(O)cc1)NC(=O)[C@H](CC(=O)O)NC(=O)[C@H](CO)NC(=O)[C@@H](NC(=O)[C@H](Cc1ccccc1)NC(=O)[C@@H](NC(=O)CNC(=O)[C@H](CCC(=O)O)NC(=O)CSCC(=O)NCCN1C(=O)SC(C)(C)C1=O)[C@@H](C)O)[C@@H](C)O)[C@@H](C)CC)C(C)C)C(N)=O)C(=O)O [Compound 94]		46%		89%		> 1000 nM	1 to 10 nM	1 to 10 nM	46%	1 to 10 nM	1 to 10 nM	89%		
CC[C@H](C)[C@H](NC(=O)[C@H](CO)NC(=O)[C@H](Cc1ccc(O)cc1)NC(=O)[C@H](CC(=O)O)NC(=O)[C@H](CO)NC(=O)[C@@H](NC(=O)[C@H](Cc1ccccc1)NC(=O)[C@@H](NC(=O)CNC(=O)[C@H](CCC(=O)O)NC(=O)C12CC(C(=O)NCCN3C(=O)CSC3=O)(C1)C2)[C@@H](C)O)[C@@H](C)O)C(=O)N[C@@H](Cc1ccc(O)cc1)C(=O)N[C@@H](CC(C)C)C(=O)N[C@@H](CC(=O)O)C(=O)N[C@@H](CCCCN)C(=O)N[C@@H](CCC(N)=O)C(=O)N[C@@H](C)C(=O)N[C@@H](C)C(=O)NC(C)(C)C(=O)N[C@@H](CCC(=O)O)C(=O)N[C@@H](Cc1ccccc1)C(=O)N[C@H](C(=O)N[C@@H](CC(N)=O)C(=O)N[C@@H](Cc1c[nH]c2ccccc12)C(=O)N[C@@H](CC(C)C)C(=O)N[C@@H](CC(C)C)C(=O)N[C@@H](C)C(=O)NCC(=O)NCC(=O)N1CCC[C@H]1C(=O)N[C@@H](CO)C(=O)N[C@@H](CO)C(=O)NCC(=O)N[C@@H](C)C(=O)N1CCC[C@H]1C(=O)N1CCC[C@H]1C(=O)N1CCC[C@H]1C(=O)N[C@@H](CO)C(=O)N[C@@H](CCCCN)C(N)=O)C(C)C [Compound 179]				103%		10 to 1000 nM	> 1000 nM			0.1 to 1 nM	0.1 to 1 nM	103%	2%	> 1000 nM
CC[C@H](C)[C@H](NC(=O)[C@H](CO)NC(=O)[C@H](Cc1ccc(O)cc1)NC(=O)[C@H](CC(=O)O)NC(=O)[C@H](CO)NC(=O)[C@@H](NC(=O)[C@H](Cc1ccccc1)NC(=O)[C@@H](NC(=O)CNC(=O)[C@H](CCC(=O)O)NC(=O)C(C)(C)C(=O)NCCN1C(=O)c2ccccc2C1=O)[C@@H](C)O)[C@@H](C)O)C(=O)N[C@@H](Cc1ccc(O)cc1)C(=O)N[C@@H](CC(C)C)C(=O)N[C@@H](CC(=O)O)C(=O)N[C@@H](CCCCN)C(=O)N[C@@H](CCC(N)=O)C(=O)N[C@@H](C)C(=O)N[C@@H](C)C(=O)NC(C)(C)C(=O)N[C@@H](CCC(=O)O)C(=O)N[C@@H](Cc1ccccc1)C(=O)N[C@H](C(=O)N[C@@H](CC(N)=O)C(=O)N[C@@H](Cc1c[nH]c2ccccc12)C(=O)N[C@@H](CC(C)C)C(=O)N[C@@H](CC(C)C)C(=O)N[C@@H](C)C(=O)NCC(=O)NCC(=O)N1CCC[C@H]1C(=O)N[C@@H](CO)C(=O)N[C@@H](CO)C(=O)NCC(=O)N[C@@H](C)C(=O)N1CCC[C@H]1C(=O)N1CCC[C@H]1C(=O)N1CCC[C@H]1C(=O)N[C@@H](CO)C(=O)N[C@@H](CCCCN)C(N)=O)C(C)C [Compound 140]		63%		107%		> 1000 nM	1 to 10 nM	1 to 10 nM	63%	< 0.1 nM	< 0.1 nM	107%		
